# Test results as given in US20170008888A1 (KYORIN PHARMACEUTICAL CO., LTD., priority 2014, published 2017).
# Columns and labels:
# Assay type in all cases: binding
# AurA = target: T1, AurA (Homo sapiens, UniProt O14965); experiment: Probe-based (AX9989) kinase profiling in Jurkat lysate: AurA; conditions: for inhibition at 10 µM: screening concentration 10 μM, read-out: AurA Inhibition % at indicated screening concentration; for inhibition at 1 µM: screening concentration 1.0 μM, read-out: Kinase inhibition % at indicated screening concentration: AurA
# T1 construct: screened for activity against several kinases in Jurkat cells; endogenous in cells; host or cells: Jurkat cell lysate
# T1 sequence (O14965 1-403): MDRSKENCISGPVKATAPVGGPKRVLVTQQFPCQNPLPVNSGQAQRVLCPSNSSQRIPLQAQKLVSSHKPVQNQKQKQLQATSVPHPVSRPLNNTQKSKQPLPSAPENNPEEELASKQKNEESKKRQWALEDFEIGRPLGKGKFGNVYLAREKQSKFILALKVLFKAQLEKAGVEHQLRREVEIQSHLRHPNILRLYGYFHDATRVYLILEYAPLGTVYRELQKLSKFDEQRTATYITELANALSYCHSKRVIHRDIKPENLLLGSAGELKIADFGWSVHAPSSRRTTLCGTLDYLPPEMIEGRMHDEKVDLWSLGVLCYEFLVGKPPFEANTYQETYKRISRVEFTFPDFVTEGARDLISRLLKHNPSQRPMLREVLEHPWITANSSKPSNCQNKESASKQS
# In short: (§1)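 Percent inhibition was derived from reduced LC/MS fragment intensities of probe-labeled peptides relative to compound-free controls. Before labeling with 5 μM AX9989, Mn2+-supplemented (20 mM) Jurkat lysate was exposed to compound for 15 min at room temperature.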
# ABL or ARG = experiment: Probe-based (AX9989) kinase profiling in Jurkat lysate: ABL or ARG; conditions: for ABL or ARG Inhibition % at indicated screening concentration: screening concentration 10 μM; for Kinase inhibition % at indicated screening concentration: ABL or ARG: screening concentration 1.0 μM
# In short: as §1
# AMPKa1 or AMPKa2 = experiment: Probe-based (AX9989) kinase profiling in Jurkat lysate: AMPKa1 or AMPKa2; conditions: for AMPKa1 or AMPKa2 Inhibition % at indicated screening concentration: screening concentration 10 μM; for Kinase inhibition % at indicated screening concentration: AMPKa1 or AMPKa2: screening concentration 1.0 μM
# In short: as §1
# TAO2 = target: T2, TAO2 (Homo sapiens, UniProt Q9UL54); experiment: Probe-based (AX9989) kinase profiling in Jurkat lysate: TAO2; conditions: for inhibition at 10 µM: screening concentration 10 μM, read-out: TAO2 Inhibition % at indicated screening concentration; for inhibition at 1 µM: screening concentration 1.0 μM, read-out: Kinase inhibition % at indicated screening concentration: TAO2
# T2 construct: screened for activity against several kinases in Jurkat cells; endogenous in cells; host or cells: Jurkat cell lysate
# T2 sequence (Q9UL54 1-1235): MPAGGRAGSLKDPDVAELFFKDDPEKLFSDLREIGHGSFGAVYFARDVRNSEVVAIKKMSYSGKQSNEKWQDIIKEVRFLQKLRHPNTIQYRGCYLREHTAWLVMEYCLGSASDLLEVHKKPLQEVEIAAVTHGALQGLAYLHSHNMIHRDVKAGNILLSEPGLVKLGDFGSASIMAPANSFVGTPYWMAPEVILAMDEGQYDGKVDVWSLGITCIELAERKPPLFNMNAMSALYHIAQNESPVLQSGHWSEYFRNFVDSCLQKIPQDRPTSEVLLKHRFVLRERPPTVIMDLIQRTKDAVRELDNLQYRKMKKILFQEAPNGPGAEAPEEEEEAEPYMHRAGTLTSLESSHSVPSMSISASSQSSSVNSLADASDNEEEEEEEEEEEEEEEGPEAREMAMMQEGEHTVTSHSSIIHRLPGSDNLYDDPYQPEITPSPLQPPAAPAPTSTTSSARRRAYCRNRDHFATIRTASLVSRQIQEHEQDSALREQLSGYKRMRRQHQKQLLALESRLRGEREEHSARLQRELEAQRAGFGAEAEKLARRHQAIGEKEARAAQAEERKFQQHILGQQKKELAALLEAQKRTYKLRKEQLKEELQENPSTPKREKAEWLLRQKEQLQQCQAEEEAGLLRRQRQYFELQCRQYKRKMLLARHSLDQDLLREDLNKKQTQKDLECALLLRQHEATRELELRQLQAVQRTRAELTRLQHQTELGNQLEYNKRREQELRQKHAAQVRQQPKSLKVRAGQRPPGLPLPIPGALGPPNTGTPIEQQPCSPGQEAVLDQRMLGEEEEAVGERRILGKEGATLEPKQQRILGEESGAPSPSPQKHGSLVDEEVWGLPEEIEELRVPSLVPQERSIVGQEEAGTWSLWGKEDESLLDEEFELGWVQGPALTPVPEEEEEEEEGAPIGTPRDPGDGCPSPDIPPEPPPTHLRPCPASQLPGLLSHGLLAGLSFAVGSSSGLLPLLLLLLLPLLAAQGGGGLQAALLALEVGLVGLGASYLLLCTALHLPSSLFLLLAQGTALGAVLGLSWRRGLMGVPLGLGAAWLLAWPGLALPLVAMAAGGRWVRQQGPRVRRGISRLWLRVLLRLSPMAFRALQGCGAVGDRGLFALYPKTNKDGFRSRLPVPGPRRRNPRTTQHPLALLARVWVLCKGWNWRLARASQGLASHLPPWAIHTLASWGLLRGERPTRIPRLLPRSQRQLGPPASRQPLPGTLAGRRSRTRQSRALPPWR
# In short: as §1
# JAK1 = target: T3, JAK1 (Homo sapiens, UniProt P23458); experiment: Probe-based (AX9989) kinase profiling in Jurkat lysate: JAK1; conditions: for inhibition at 10 µM: screening concentration 10 μM, read-out: JAK1 Inhibition % at indicated screening concentration; for inhibition at 1 µM: screening concentration 1.0 μM, read-out: Kinase inhibition % at indicated screening concentration: JAK1
# T3 construct: screened for activity against several kinases in Jurkat cells; endogenous in cells; host or cells: Jurkat cell lysate
# In short: as §1
# ERK5 = target: T4, ERK5 (Homo sapiens, UniProt Q13164); experiment: Probe-based (AX9989 acyl phosphate ATP probe) kinase profiling in Jurkat lysate: ERK5; conditions: for IC50: Jurkat lysate; for inhibition at 10 µM: screening concentration 10 μM, read-out: ERK5 Inhibition % at indicated screening concentration; for inhibition at 1 µM: screening concentration 1.0 μM, read-out: Kinase inhibition % at indicated screening concentration: ERK5
# T4 construct: screened for activity against several kinases in Jurkat cells; endogenous in cells; host or cells: Jurkat cell lysate
# In short: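 ERK5 IC50 values came from percent inhibition at the screening concentration, measured as loss of LC/MS signal of probe-labelled active-site peptides. Compound was added for 15 min at room temperature to Jurkat lysate (5 mg/ml, 20 mM MnCl2) before labelling with AX9989 ATP acyl phosphate probe at 5 μM.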
# [1] = calculated from percent inhibition and screening concentration, AX9989 probe
# [2] = calculated from percent inhibition of AX9989 labeling and the screening concentration
# T4 sequence (Q13164 whole entry): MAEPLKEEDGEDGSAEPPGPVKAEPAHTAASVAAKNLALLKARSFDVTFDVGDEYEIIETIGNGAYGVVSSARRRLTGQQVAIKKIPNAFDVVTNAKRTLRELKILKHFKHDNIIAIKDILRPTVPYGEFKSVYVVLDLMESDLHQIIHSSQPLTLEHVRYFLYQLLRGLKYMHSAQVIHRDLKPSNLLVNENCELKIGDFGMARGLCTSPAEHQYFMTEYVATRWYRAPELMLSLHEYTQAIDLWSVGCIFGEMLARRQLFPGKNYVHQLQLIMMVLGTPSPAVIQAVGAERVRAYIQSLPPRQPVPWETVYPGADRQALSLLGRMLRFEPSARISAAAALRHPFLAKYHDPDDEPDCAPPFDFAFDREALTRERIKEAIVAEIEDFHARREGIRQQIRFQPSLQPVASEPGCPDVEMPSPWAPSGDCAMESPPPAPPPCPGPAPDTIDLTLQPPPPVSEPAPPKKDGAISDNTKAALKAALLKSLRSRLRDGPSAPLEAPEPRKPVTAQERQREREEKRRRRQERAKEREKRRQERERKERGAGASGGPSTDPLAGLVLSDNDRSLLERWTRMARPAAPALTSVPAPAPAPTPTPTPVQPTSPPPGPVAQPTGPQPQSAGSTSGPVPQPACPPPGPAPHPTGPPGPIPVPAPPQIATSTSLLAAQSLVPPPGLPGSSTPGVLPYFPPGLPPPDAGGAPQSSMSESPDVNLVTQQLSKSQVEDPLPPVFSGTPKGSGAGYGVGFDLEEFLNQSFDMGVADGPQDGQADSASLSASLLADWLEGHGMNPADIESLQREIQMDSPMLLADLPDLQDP
# T3 sequence (P23458 whole entry): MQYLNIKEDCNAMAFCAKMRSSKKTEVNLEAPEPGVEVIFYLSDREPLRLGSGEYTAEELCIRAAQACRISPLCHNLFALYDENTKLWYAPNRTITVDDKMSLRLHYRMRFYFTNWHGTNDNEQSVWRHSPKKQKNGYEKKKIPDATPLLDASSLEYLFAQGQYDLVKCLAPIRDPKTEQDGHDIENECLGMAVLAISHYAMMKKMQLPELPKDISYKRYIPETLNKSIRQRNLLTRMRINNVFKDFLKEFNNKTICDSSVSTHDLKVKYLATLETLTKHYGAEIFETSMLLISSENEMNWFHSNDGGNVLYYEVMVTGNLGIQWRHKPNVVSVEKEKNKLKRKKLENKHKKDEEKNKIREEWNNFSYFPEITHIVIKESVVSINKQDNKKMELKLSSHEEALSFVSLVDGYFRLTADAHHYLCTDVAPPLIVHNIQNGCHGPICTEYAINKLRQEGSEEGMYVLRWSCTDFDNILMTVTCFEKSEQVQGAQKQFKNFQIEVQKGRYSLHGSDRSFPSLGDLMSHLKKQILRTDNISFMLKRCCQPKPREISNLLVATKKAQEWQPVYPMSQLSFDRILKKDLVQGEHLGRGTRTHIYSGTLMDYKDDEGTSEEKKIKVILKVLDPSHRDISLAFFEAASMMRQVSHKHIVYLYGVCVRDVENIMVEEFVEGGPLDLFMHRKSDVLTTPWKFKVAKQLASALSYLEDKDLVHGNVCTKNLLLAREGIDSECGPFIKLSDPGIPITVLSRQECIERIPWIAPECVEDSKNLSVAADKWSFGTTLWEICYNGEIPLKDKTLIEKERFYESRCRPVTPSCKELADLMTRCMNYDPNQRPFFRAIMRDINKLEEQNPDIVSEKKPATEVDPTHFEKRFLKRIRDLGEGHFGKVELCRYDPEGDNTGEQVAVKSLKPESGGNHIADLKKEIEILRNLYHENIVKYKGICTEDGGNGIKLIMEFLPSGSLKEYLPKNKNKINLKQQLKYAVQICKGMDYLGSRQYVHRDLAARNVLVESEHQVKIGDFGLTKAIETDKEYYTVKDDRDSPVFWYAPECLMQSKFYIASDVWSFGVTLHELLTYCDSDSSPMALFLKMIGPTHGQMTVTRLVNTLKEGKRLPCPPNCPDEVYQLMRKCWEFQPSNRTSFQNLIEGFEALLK
SMILES,inhibition at 10 µM (AurA) [%],ABL or ARG Inhibition % at indicated screening concentration (ABL or ARG),AMPKa1 or AMPKa2 Inhibition % at indicated screening concentration (AMPKa1 or AMPKa2),inhibition at 10 µM (TAO2) [%],inhibition at 10 µM (JAK1) [%],IC50 (ERK5; [1]) [nM],inhibition at 10 µM (ERK5) [%],inhibition at 1 µM (AurA) [%],Kinase inhibition % at indicated screening concentration: ABL or ARG (ABL or ARG),Kinase inhibition % at indicated screening concentration: AMPKa1 or AMPKa2 (AMPKa1 or AMPKa2),inhibition at 1 µM (TAO2) [%],inhibition at 1 µM (JAK1) [%],IC50 (ERK5; [2]) [nM],inhibition at 1 µM (ERK5) [%]
CN1C(=O)c2c(F)ccc(F)c2Oc2cc(N[C@H]3CC[C@H](O)CC3)ncc21 [Compound T97],≤ 35,E (E is ≦35%),E (E is ≦35%),50 to 75,≤ 35,> 500,> 90,,,,,,,
CCOc1cc(C(=O)NCCCN(CC)CC)ccc1Nc1cc2c(cn1)N(C)C(=O)c1ccccc1N2C [Compound 54],,,,,,,,≤ 35,E (E is ≦35%),E (E is ≦35%),≤ 35,≤ 35,101 to 500,75 to 90
"CCOc1cc(C(=O)N2CCC(N3CCCC3)CC2)ccc1Nc1cc2c(cn1)N(C)C(=O)c1ccccc1N2C [Compound 46, 3-(2-Ethoxy-4-(4-(pyrrolidin-1-yl)piperidine-1-carbonyl)phenylamino)-5,11-dimethyl-5H-benzo[e]pyrido[3,4-b][1,4]diazepin-10(11H)-one]",,,,,,,,≤ 35,E (E is ≦35%),E (E is ≦35%),≤ 35,≤ 35,≤ 50,> 90
CN1C(=O)c2c(F)cccc2Oc2cc(N[C@H]3CC[C@H](O)CC3)ncc21 [Compound T92],≤ 35,E (E is ≦35%),E (E is ≦35%),50 to 75,≤ 35,101 to 500,> 90,,,,,,,
